Test results published in ChEMBL document CHEMBL1201862, “PubChem BioAssay data set” (2004).
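Five compound concentrations were applied to cells in 96-well plates for 48 hours; endpoints were derived by simple linear interpolation of the resulting dose-response curve. The concentration for 50% growth inhibition is given as GI50.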 Activity calls are given as the source filed them. Cut-off read from the data, not from the text of the source: active = GI50 up to about 1.1 µM and inactive = higher.

Assays:
Experiment in all cases: NCI anticancer screen, dose series, 48 h
SW-620 = test system: SW-620
SK-MEL-2 = test system: SK-MEL-2
SF-295 = test system: SF-295
ACHN = test system: ACHN
MCF7 = test system: MCF7
MDA-MB-231 = test system: MDA-MB-231
SN12C = test system: SN12C
COLO 205 = test system: COLO 205
HCT-15 = test system: HCT-15
MOLT-4 = test system: MOLT-4
PC-3 = test system: PC-3
NCI-H522 = test system: NCI-H522
SK-OV-3 = test system: SK-OV-3
M14 = test system: M14
SK-MEL-5 = test system: SK-MEL-5
HOP-62 = test system: HOP-62
OVCAR-3 = test system: OVCAR-3
EKVX = test system: EKVX
SNB-75 = test system: SNB-75

| Compound | GI50 (SW-620) | GI50 (SK-MEL-2) | GI50 (SF-295) | GI50 (ACHN) | GI50 (MCF7) | GI50 (MDA-MB-231) | GI50 (SN12C) | GI50 (COLO 205) | GI50 (HCT-15) [µM] | GI50 (MOLT-4) | GI50 (PC-3) | GI50 (NCI-H522) | GI50 (SK-OV-3) | GI50 (M14) | GI50 (SK-MEL-5) | GI50 (HOP-62) | GI50 (OVCAR-3) | GI50 (EKVX) | GI50 (SNB-75) |
| --- | --- | --- | --- | --- | --- | --- | --- | --- | --- | --- | --- | --- | --- | --- | --- | --- | --- | --- | --- |
| Nc1ccc(-c2nc3ccc(Cc4ccc5nc(-c6ccc(N)cc6)oc5c4)cc3o2)cc1 | > 100 µM (inactive) | > 100 µM (inactive) | > 100 µM (inactive) | > 100 µM (inactive) | > 100 µM (inactive) | > 100 µM (inactive) | > 100 µM (inactive) | > 100 µM (inactive) | > 100 | 67 µM (inactive) | > 100 µM (inactive) | > 100 µM (inactive) | > 100 µM (inactive) | 49.9 µM (inactive) |  |  |  |  |  |
| CCOC1=NC(O)c2cccn2-c2sccc21 (stereo unspecified) | > 100 µM (inactive) | > 100 µM (inactive) | > 100 µM (inactive) | > 100 µM (inactive) | > 100 µM (inactive) | > 100 µM (inactive) | > 100 µM (inactive) | 7.73 µM (inactive) | > 100 | 51.6 µM (inactive) | > 100 µM (inactive) | > 100 µM (inactive) | 93.3 µM (inactive) | > 100 µM (inactive) | 96.4 µM (inactive) | > 100 µM (inactive) | > 100 µM (inactive) |  |  |
| O=C1Oc2cc3c(c4cccc1c24)O[C@H](c1ccccc1)[C@@H](c1ccccc1)[C@@H]3c1ccc(Cl)cc1 | > 100 µM (inactive) |  | 42.7 µM (inactive) | 26.7 µM (inactive) | > 100 µM (inactive) | 18.3 µM (inactive) | 79.4 µM (inactive) | > 100 µM (inactive) | > 100 | 19.6 µM (inactive) | > 100 µM (inactive) | 38 µM (inactive) | 45.2 µM (inactive) | 40.1 µM (inactive) | > 100 µM (inactive) | 18.2 µM (inactive) | 36.8 µM (inactive) | > 100 µM (inactive) |  |
| CC1CC[C@@H](C(C)C)[C@H](Oc2nnc(C3OC(CO)C(O)C3O)o2)C1 (stereo partly specified) | > 100 µM (inactive) | > 100 µM (inactive) | > 100 µM (inactive) | > 100 µM (inactive) | > 100 µM (inactive) | > 100 µM (inactive) | > 100 µM (inactive) | > 100 µM (inactive) | > 100 | > 100 µM (inactive) | > 100 µM (inactive) |  | > 100 µM (inactive) |  | > 100 µM (inactive) | > 100 µM (inactive) | > 100 µM (inactive) | > 100 µM (inactive) | > 100 µM (inactive) |
| Oc1c(Br)cc(/C=C/c2ccnc(/C=C/c3cc(Br)c(O)c(Br)c3)c2)cc1Br | 35.6 µM (inactive) | 14.9 µM (inactive) | 27.5 µM (inactive) | 28.4 µM (inactive) | 24.2 µM (inactive) | 21.9 µM (inactive) | 51.3 µM (inactive) | 27.4 µM (inactive) | 23.6 | 21 µM (inactive) | 16.4 µM (inactive) |  | 34.2 µM (inactive) | 25.1 µM (inactive) | 19.1 µM (inactive) | 34.4 µM (inactive) | 19.7 µM (inactive) | 25.4 µM (inactive) | 19.1 µM (inactive) |
| Cc1cnc(-c2c[nH]c3ccccc23)nc1-c1c[nH]c2ccccc12 | 11.5 µM (inactive) | 6.44 µM (inactive) | 3.29 µM (inactive) | 2.94 µM (inactive) | 3.05 µM (inactive) | 2.31 µM (inactive) | 1.68 µM (inactive) | 4.58 µM (inactive) | 5.81 | 4.2 µM (inactive) | 3.49 µM (inactive) |  | 11.2 µM (inactive) | 4.32 µM (inactive) | 6.97 µM (inactive) | 11.7 µM (inactive) | 8.13 µM (inactive) | 6.21 µM (inactive) | 2.39 µM (inactive) |
